Test results taken from patent US3992391A, “1,3-Disubstituted thiourea compounds and preparation thereof” (priority 1972, dated 1976).
Structures can show the parent of a compound that is named as a salt.

Tests used:
[1] = Hypoxia test (mouse), reduced pressure, survival time; format: in vivo, male mice (dd-strain); settings: reduced pressure 145 mmHg
Experimental: (§1) Male mice (dd-strain) and rats (wister-strain) were taken to a closed room which was filled with a gas mixture consisting of 1.5 % oxygen and 98.5 % nitrogen, or was conditioned in reduced atmospheric pressure (145 mmHg). In the other hand, mice and rats were given sodium cyanide (10 mg/kg, i.p.). These animals died after a few minutes in such conditions. 1-(3'-Pyridyl)-3-(2'-hydroxyethyl)thiourea HCl was given 1 hour before these hypoxia tests.
(§2) In the Tables data mean the increase percent of the survival time to that of control.

[2] = Hypoxia test (mouse), normal pressure, survival time; format: in vivo, male mice (dd-strain); settings: 1.5 % O2 + 98.5 % N2
Experimental: as §1, §2

[3] = Hypoxia test (mouse), KCN, survival time; format: in vivo, male mice (dd-strain); settings: KCN 10 mg/kg i.p.
phosphorylase = test: Cerebral phosphorylase after cold injury (freezing lesion cerebral edema); format: in vivo; settings: rats
Experimental: Cerebral edema was induced in rats by a freezing lesion (dry ice) made on the exposed dura of unilateral hemisphere. Edema was measured by the increase in water content of gray and white matter, the increase in phosphorylase activity and the decrease in Na^+, K^+ - ATPase activity of the injured brain. 1-(3'-Pyridyl)-3-(2'-hydroxyethyl)thiourea HCl was given 1 hour before and 24 hours after, and the animals were killed by decapitation 48 hours after the lesion treatment.

[4] = Hypoxia test (rat), normal pressure, survival time; format: in vivo, rats (wister-strain); settings: 1.5 % O2 + 98.5 % N2
Experimental: as §1, §2

[5] = Hypoxia test (rat), KCN, survival time; format: in vivo, rats (wister-strain); settings: KCN 10 mg/kg i.p.

OCCNC(=S)Nc1cccnc1 [1-(3'-pyridyl)-3-(2'-hydroxyethyl)thiourea hydrochloride]
increase percent of the survival time to that of control ([1]; 30 mg/kg i.v.): 141% | increase percent of the survival time to that of control ([1]; 30 mg/kg p.o.): 35% | increase percent of the survival time to that of control ([1]; 100 mg/kg p.o.): 64% | increase percent of the survival time to that of control ([1]; 100 mg/kg s.c.): 128% | increase percent of the survival time to that of control ([1]; 300 mg/kg p.o.): 132% | increase percent of the survival time to that of control ([2]; 30 mg/kg i.v.): 164% | increase percent of the survival time to that of control ([2]; 30 mg/kg p.o.): 105% | increase percent of the survival time to that of control ([2]; 100 mg/kg p.o.): 165% | increase percent of the survival time to that of control ([2]; 100 mg/kg s.c.): 147% | increase percent of the survival time to that of control ([2]; 300 mg/kg p.o.): 231% | increase percent of the survival time to that of control ([3]; 30 mg/kg i.v.): 185% | increase percent of the survival time to that of control ([3]; 30 mg/kg p.o.): 42% | increase percent of the survival time to that of control ([3]; 100 mg/kg p.o.): 189% | increase percent of the survival time to that of control ([3]; 100 mg/kg s.c.): 254% | increase percent of the survival time to that of control ([3]; 300 mg/kg p.o.): 287% | Phosphorylase A/T × 100 (Active phosphorylase/Total phosphorylase) (phosphorylase; 100 mg/kg p.o.): 68.5 ± 2.5 | Phosphorylase, Active (phosphorylase; 100 mg/kg p.o.): 0.242 ± 0.019 units/g | Phosphorylase A/T × 100 (Active phosphorylase/Total phosphorylase) (phosphorylase; 300 mg/kg p.o.): 66.4 ± 2.7 | Phosphorylase, Active (phosphorylase; 300 mg/kg p.o.): 0.220 ± 0.057 units/g | effect on the increase in phosphorylase activity (phosphorylase; 300 mg/kg p.o.): protective effect | increase percent of the survival time to that of control ([4]; 30 mg/kg i.v.): 148% | increase percent of the survival time to that of control ([4]; 30 mg/kg p.o.): 36% | increase percent of the survival time to that of control ([4]; 100 mg/kg p.o.): 75% | increase percent of the survival time to that of control ([4]; 100 mg/kg s.c.): 192% | increase percent of the survival time to that of control ([4]; 300 mg/kg p.o.): 153% | increase percent of the survival time to that of control ([5]; 30 mg/kg i.v.): 174% | increase percent of the survival time to that of control ([5]; 30 mg/kg p.o.): 45% | increase percent of the survival time to that of control ([5]; 100 mg/kg p.o.): 116% | increase percent of the survival time to that of control ([5]; 100 mg/kg s.c.): 169% | increase percent of the survival time to that of control ([5]; 300 mg/kg p.o.): 187%
